Where two headings read alike, the source gives them in different places.
Legend:
Format in all cases: cell-based
[1] = tested on: T47D cells expressing mutant PI3Ka (H1047R); assay: In vitro cell proliferation (CellTiter-Glo, 72 hours), T47D cells; conditions: inhibition of proliferation, read-out: Avg T-47D EC50
Description: (§1) In Vitro Cell Proliferation: Determination of EC50 Values for Inhibition of Proliferation in T47D Cells Expressing Mutant PI3Ka (H1047R) Mutation and SKBR3 Cells Express WT PI3Ka.
(§2) T47D or SKBR3 cells were trypsinized, resuspended in culture media and seeded onto assay ready plates. T47D culture media consisted of RPMI, 10% FBS and Insulin (0.2 units/mL). SKBR3 culture media consisted of McCoys 5a and 10% FBS. Cells were seeded at a density of 1,500 cells/well and dispensed in 50 uL onto 384 well assay ready plates (Corning, 89089-790). Assay ready plates had previously been stamped with 10-point dilutions of compounds of interest, as well as controls. The Echo655 is used to stamp plates at 40 nL of compound or DMSO. Cells were grown for 72 hours at 37° Celsius and 5% CO2. After 72 hours, cells were equilibrated at room temperature for 15 minutes. 30 uL of CellTiter-Glo reagent is added to the plate, which is then shaken for 30 minutes at temperature at 300-500 rpm. Cells are then read on an Envision plate reader. The percentage of inhibition of proliferation was calculated using the following formula: % Inhibition=100×(LumD−LumSample)/(LumD−LumInh), where D is obtained from cells treated with 0.1% DMSO only; Inh is obtained from cells treated with 10 uM Alpelisib. The effective concentration achieving 50% inhibition of proliferation (EC50) is calculated by fitting the Curve using XWfit (v5.3.1.3), equation 201: Y=Bottom+(Top−Bottom)/(1+10^((Log EC50−X)*HillSlope)).

[2] = tested on: SKBR3 cells express WT PI3Ka; assay: In vitro cell proliferation (CellTiter-Glo, 72 hours), SKBR3 cells; conditions: inhibition of proliferation
Description: as §1, §2

[3] = tested on: phosphorylation of AKT (pAKT) in T47D cells expressing mutant PI3Ka (H1047R); assay: In vitro cell pAKT (Ser473) HTRF, T47D cells; conditions: inhibition of pAKT, read-out: Avg T-47D IC50
Description: (§3) In Vitro Cell pAKT: Determination of IC50 Values for Inhibition of Phosphorylation of AKT (pAKT) in T47D Cells Expressing Mutant PI3Ka (H1047R) Mutation and SKBR3 Cells Express WT PI3Ka.
(§4) T47D or SKBR3 cells were trypsinized, resuspended in culture media and seeded onto assay ready plates. T47D culture media consisted of RPMI, 10% FBS and Insulin (0.2 units/mL). SKBR3 culture media consisted of McCoy's 5a and 10% FBS. Cells were seeded at a density of 5000 cells/well and dispensed in 12.5 uL onto 384 well assay ready plates (Perkin Elmer, 6008238)). Assay ready plates had previously been stamped with 10-point dilutions of compounds of interest, as well as controls. The Echo655 is used to stamp plates at 12.5 nL of compound or DMSO. Cells were grown for 6 hour at 37° Celsius and 5% CO2. After 6 hour, 4 uL of Lysis buffer reagent was added to the plate, which was then centrifuged for 1 minute at 1000 rpm. Then the plate was incubated at room temperature for 30 minutes. After 30 minutes, 4 uL of antibody mix containing Eu Cryptate, d2 Cryptate, and detection buffer, was added to the plate. The plate was centrifuged for 1 minute at 1000 rpm and then incubated overnight at room temperature. The plate was read on an Envision plate reader using the HTRF protocol. The percentage of inhibition of AKT phosphorylation was calculated using the following formula: % Inhibition=100×(pAKTHC−pAKTSample)/(pAKTHC−pAKTLC)), where pAKTHC is obtained from cells treated with 0.1% DMSO only; pAKTLC is obtained from cells treated with 10 uM Alpelisib. The IC50 (concentration achieving 50% inhibition of pAKT) is calculated by fitting the Curve using XWfit (v5.3.1.3), equation 201: Y=Bottom+(Top−Bottom)/(1+10^((Log IC50−X)*HillSlope)).

[4] = tested on: phosphorylation of AKT (pAKT) in SKBR3 cells express WT PI3Ka; assay: In vitro cell pAKT (Ser473) HTRF, SKBR3 cells; conditions: inhibition of pAKT
Description: as §3, §4

Structure (SMILES)	EC50 [1] [µM]	EC50 ([2]; Homo sapiens, SK-BR-3, 72 h) [µM]	IC50 ([3]; 6 hour) [µM]	IC50 ([4]; Homo sapiens, SK-BR-3, 6 h) [µM]	EC50 [2] [µM]	IC50 ([4]; 6 hour) [µM]	EC50 ([1]; Homo sapiens, T47D, 72 h) [µM]	IC50 ([3]; Homo sapiens, T47D, 6 h) [µM]
Cc1cc(C(C)Nc2ccccc2C(=O)O)c2nc(N3Cc4ccc(C#N)cc4C3)n(C)c(=O)c2c1 (single isomer, unassigned) [Example 18, 2-((1-(2-(5-cyanoisoindolin-2-yl)-3,6-dimethyl-4-oxo-3,4-dihydroquinazolin-8-yl)ethyl)amino)benzoic acid]	> 15	–	> 15	–	> 15	> 15	–	–
Cc1cc2c(=O)n(C)c(N3CCN(CC(F)(F)F)CC3)nc2c(C(C)Nc2ccccc2C(=O)O)c1F (single isomer, unassigned) [Example 20, 2-((1-(7-fluoro-3,6-dimethyl-4-oxo-2-(4-(2,2,2-trifluoroethyl)piperazin-1-yl)-3,4-dihydroquinazolin-8-yl)ethyl)amino)benzoic acid]	0.5 to 2	> 15	0.001 to 1	> 15	–	–	–	–
Cc1cc2c(=O)n(C)c(N3CCN(CC(F)(F)F)CC3)nc2c(C(C)Nc2ccccc2C(=O)O)c1F (single isomer, unassigned) [Example 21, 2-((1-(7-fluoro-3,6-dimethyl-4-oxo-2-(4-(2,2,2-trifluoroethyl)piperazin-1-yl)-3,4-dihydroquinazolin-8-yl)ethyl)amino)benzoic acid]	> 15	–	> 15	–	> 15	> 15	–	–
CC(Nc1ccccc1C(=O)O)c1cc(Cl)cc2c(=O)n(C)c(N3CCC(C)(C)CC3)nc12 (single isomer, unassigned) [Example 23, 2-((1-(6-chloro-2-(4,4-dimethylpiperidin-1-yl)-3-methyl-4-oxo-3,4-dihydroquinazolin-8-yl)ethyl)amino)benzoic acid]	2 to 15	–	> 15	–	2 to 15	> 15	–	–
CC(Nc1ccccc1C(=O)O)c1cc(Cl)cc2c(=O)n(C)c(N3CCN(CC(F)(F)F)CC3)nc12 (single isomer, unassigned) [Example 26, 2-((1-(6-chloro-3-methyl-4-oxo-2-(4-(2,2,2-trifluoroethyl)piperazin-1-yl)-3,4-dihydroquinazolin-8-yl)ethyl)amino)benzoic acid]	0.5 to 2	> 15	0.001 to 1	> 15	–	–	–	–
CC(Nc1ccccc1C(=O)O)c1cc(Cl)cc2c(=O)n(C)c(N3CCN(CC(F)(F)F)CC3)nc12 (single isomer, unassigned) [Example 27, 2-((1-(6-chloro-3-methyl-4-oxo-2-(4-(2,2,2-trifluoroethyl)piperazin-1-yl)-3,4-dihydroquinazolin-8-yl)ethyl)amino)benzoic acid]	> 15	–	> 15	–	> 15	> 15	–	–
Cc1cc(C(C)Nc2ccccc2C(=O)O)c2nc(SCc3ccc(Cl)c(OC(F)(F)F)c3)n(C)c(=O)c2c1 (single isomer, unassigned) [Example 32, 2-((1-(2-((4-chloro-3-(trifluoromethoxy)benzyl)thio)-3,6-dimethyl-4-oxo-3,4-dihydroquinazolin-8-yl)ethyl)amino)benzoic acid]	2 to 15	–	> 15	–	2 to 15	> 15	–	–
CC(Nc1ccccc1C(=O)O)c1cc(F)cc2c(=O)n(C)c(N3CCN(CC(F)(F)F)CC3)nc12 (single isomer, unassigned) [Example 36, 2-((1-(6-fluoro-3-methyl-4-oxo-2-(4-(2,2,2-trifluoroethyl)piperazin-1-yl)-3,4-dihydroquinazolin-8-yl)ethyl)amino)benzoic acid]	> 15	–	> 15	–	> 15	> 15	–	–

The next lines start with the values.

EC50 [1] [µM]	EC50 ([2]; Homo sapiens, SK-BR-3, 72 h) [µM]	IC50 ([3]; 6 hour) [µM]	IC50 ([4]; Homo sapiens, SK-BR-3, 6 h) [µM]	EC50 [2] [µM]	IC50 ([4]; 6 hour) [µM]	EC50 ([1]; Homo sapiens, T47D, 72 h) [µM]	IC50 ([3]; Homo sapiens, T47D, 6 h) [µM]	Structure (SMILES)
0.001 to 0.5	> 15	0.001 to 1	> 15	–	–	–	–	Cc1cc(C(C)Nc2ccccc2C(=O)O)c2nc(N3Cc4ccc(C#N)cc4C3)n(C)c(=O)c2c1 (single isomer, unassigned) [Example 17, 2-((1-(2-(5-cyanoisoindolin-2-yl)-3,6-dimethyl-4-oxo-3,4-dihydroquinazolin-8-yl)ethyl)amino)benzoic acid]
0.5 to 2	–	0.001 to 1	> 15	> 15	–	–	–	CC(Nc1ccccc1C(=O)O)c1cc(Cl)cc2c(=O)n(C)c(N3CCC(C)(C)CC3)nc12 (single isomer, unassigned) [Example 22, 2-((1-(6-chloro-2-(4,4-dimethylpiperidin-1-yl)-3-methyl-4-oxo-3,4-dihydroquinazolin-8-yl)ethyl)amino)benzoic acid]
0.001 to 0.5	2 to 15	0.001 to 1	> 15	–	–	–	–	CC(Nc1ccc(F)cc1C(=O)O)c1cc(Cl)cc2c(=O)n(C)c(N3CCN(CC(F)(F)F)CC3)nc12 (single isomer, unassigned) [Example 24, 2-((1-(6-chloro-3-methyl-4-oxo-2-(4-(2,2,2-trifluoroethyl)piperazin-1-yl)-3,4-dihydroquinazolin-8-yl)ethyl)amino)-5-fluorobenzoic acid]
2 to 15	–	> 15	–	2 to 15	> 15	–	–	CC(Nc1ccc(F)cc1C(=O)O)c1cc(Cl)cc2c(=O)n(C)c(N3CCN(CC(F)(F)F)CC3)nc12 (single isomer, unassigned) [Example 25, 2-((1-(6-chloro-3-methyl-4-oxo-2-(4-(2,2,2-trifluoroethyl)piperazin-1-yl)-3,4-dihydroquinazolin-8-yl)ethyl)amino)-5-fluorobenzoic acid]
2 to 15	–	> 15	–	2 to 15	> 15	–	–	Cc1cc(C(C)Nc2ccc(F)cc2C(=O)O)c2nc(N3CCC(C)(C)CC3)n(C)c(=O)c2c1 (single isomer, unassigned) [Example 30, 2-((1-(2-(4,4-dimethylpiperidin-1-yl)-3,6-dimethyl-4-oxo-3,4-dihydroquinazolin-8-yl)ethyl)amino)-5-fluorobenzoic acid]
–	2 to 15	–	> 15	–	–	2 to 15	> 15	Cc1cc(C(C)Nc2ccccc2C(=O)O)c2nc(SCc3ccc(Cl)c(OC(F)(F)F)c3)n(C)c(=O)c2c1 (single isomer, unassigned) [Example 31, 2-((1-(2-((4-chloro-3-(trifluoromethoxy)benzyl)thio)-3,6-dimethyl-4-oxo-3,4-dihydroquinazolin-8-yl)ethyl)amino)benzoic acid]
0.001 to 0.5	> 15	0.001 to 1	–	–	> 15	–	–	CC(Nc1ccc(F)cc1C(=O)O)c1cc(F)cc2c(=O)n(C)c(N3CCN(CC(F)(F)F)CC3)nc12 (single isomer, unassigned) [Example 33, 5-fluoro-2-((1-(6-fluoro-3-methyl-4-oxo-2-(4-(2,2,2-trifluoroethyl)piperazin-1-yl)-3,4-dihydroquinazolin-8-yl)ethyl)amino)benzoic acid]
> 15	–	> 15	–	> 15	5 to 15	–	–	CC(Nc1ccc(F)cc1C(=O)O)c1cc(F)cc2c(=O)n(C)c(N3CCN(CC(F)(F)F)CC3)nc12 (single isomer, unassigned) [Example 34, 5-fluoro-2-((1-(6-fluoro-3-methyl-4-oxo-2-(4-(2,2,2-trifluoroethyl)piperazin-1-yl)-3,4-dihydroquinazolin-8-yl)ethyl)amino)benzoic acid]
